Tested on: CIA
Test: 1-MT (IDO inhibition) reversal of 4-1BB-mediated suppression of CIA
Type: in vivo, mice
Method: Each mouse was injected with 200[…] of purified anti-4-1BB (3H3, rat IgG1), anti-4-1BBL (TKS-1, rat IgG1), or control rat IgG i.p. on PI days 0, 2, 4, 6, and 8. We tested the dose response of the antibodies in vivo by measuring serum IFN-γ levels for anti-4-1BB and suppression of the recall response for anti-4-1BBL. […] To treat established CIA, the mice were injected on PI days 28, 30, 32, 34, and 36. To block IFN-γ mice were injected i.p. every 4 days with 500[…] of purified R4-6A2 on PI days 0, 4, 8, and 12. Rat IgG again served as a control.
To inhibit IDO activity, slow-release polymer pellets impregnated with 1-MT (10 mg/day release rate) or placebo pellets (Innovative Research of America, Sarasota, Fla.) were implanted under the dorsal skin 1 day before the immunization. […] Because of the large size of these pellets relative to the small size of the mice, additional experiments were conducted with the implantation of two smaller pellets (10 mg/day release rate) per mouse, each containing 120 mg 1-MT, for a dose of 20 mg/day for 12 days. On day 13, two more pellets were implanted, for a total dosage period of 24 days.

## Cn1cc(CC(N)C(=O)O)c2ccccc21 (racemic) [1-MT, 1-methyl D,L-tryptophan]
5 mg/day 1-MT, with anti-4-1BB
  reversal of suppressive effect of anti-4-1BB on CIA: incomplete
20 mg/day dose of 1-MT, slow-release pellets, with anti-4-1BB
  suppressive effect of anti-4-1BB on CIA: completely reversed
1-MT with anti-4-1BB, 'in these experiments'
  time of appearance of CIA after 1-MT reversal: at the same time as in the control mice
1-MT-treated mice with 3H3, control mice first showed signs on PI day 30
  day disease became evident: 48 PI day

Source: US20070253961A1, “Pharmaceutical Composition Comprising the Anti-4-1Bb Antibody for Treating or Preventing Rheumatoid Arthritis” (ULSAN INDUSTRIAL EDUCATION FOUNDATION, priority 2003, published 2007)
